In patent US10435394B2, “Plant growth-promotion agent and method for promoting plant growth” (RIKEN, priority 2014, dated 2019):

Tests used:
Type in all cases: in vivo
[1] = tested on: Arabidopsis seeds (Columbia); experiment: Plant growth promoting activity test using Arabidopsis, Experimental Method (2); conditions: 15, 30, 60 μM; for growth of aerial leaves: Day 26 of sprouting, FIGS. 15 and 16; for growth of aerial leaves (average leaf area per individual): Day 27 of sprouting, FIGS. 10 and 11; for plant growth promoting effects (state of sprouting): Day 22, FIGS. 6 and 7
Description: A ½ MS medium (agarose: 0.9%; sucrose: 1.5%; Murashige & Skoog plant culture medium×½ concentration) was prepared and autoclaved. Then, the test compounds were separately added thereto at 0 (DMSO alone), 15, 30, and 60 μM and solidified in a plastic petri dish. Arabidopsis seeds (Columbia) were sterilized with ethanol and sown to sprout, followed by observation of conditions of leaves and roots after sprouting. DMSO alone was added as a solvent for a control.

[2] = tested on: Tomato seeds (Micro-Tom); experiment: Plant growth promoting effects on tomato; conditions: 5, 15, 30 μM in 1/2 MS medium; Day 73 of sprouting; FIG. 17
Description: A ½ MS medium (agarose: 0.9%; sucrose: 1.5%; Murashige & Skoog plant culture medium×½ concentration) was prepared and autoclaved. Then, the compound 1 (PPZ) was added thereto at 0 (DMSO alone), 5, 15, and 30 μM and solidified in a plastic pot. Tomato seeds (Micro-Tom) were sterilized with hypochlorous acid and sown to sprout, followed by observation of conditions of leaves and stems after sprouting. DMSO alone was added as a solvent for a control.

[3] = tested on: rice (Nipponbare); experiment: Plant growth promoting effects upon rice; conditions: 15 or 30 μM in water absorbed from the bottom of the pot from Day 7; Day 21 of sprouting; FIG. 18
Description: A plant pot containing rice culture soil was prepared and rice (Nipponbare) was sown therein. Rice was raised with distilled water until Day 7 of sprouting. Rice was allowed to absorb distilled water containing the compound 1 (PPZ) at a concentration of 0 (DMSO alone), 15, or 30 μM from the bottom of the pot from Day 7 of sprouting. Water used was discarded every 7 days and replaced by fresh water. Rice was photographed and the plant length of rice was measured on Day 21 of sprouting or Day of 14 from the start of treatment.

[4] = tested on: Arabidopsis seeds (Columbia); experiment: Plant growth promoting activity test using Arabidopsis, Experimental Method (1); conditions: 5, 15, 30, 45, 60 μM
[5] = tested on: Arabidopsis seeds (Columbia); experiment: as above; conditions: for plant growth promoting effects (state of sprouting): 60 μM in 1/2 MS medium, Day 23, FIG. 1
Description: A ½ MS medium (agarose: 0.9%; sucrose: 1.5%; Murashige & Skoog plant culture medium×½ concentration) was prepared and autoclaved. Then, the test compounds were separately added thereto at 60 μM and solidified in a plastic petri dish. Arabidopsis seeds (Columbia) were sterilized with ethanol and sown to sprout, followed by observation of conditions of leaves, roots, and stems after sprouting. DMSO alone was added as a solvent for a control.

c1cc2c(cc1CN1CCNCC1)OCO2 [Compound 1, 1-piperonylpiperazine]
growth of aerial leaves [1]: activity of promoting the growth of aerial leaves at the late growth stage | growth of aerial leaves (average leaf area per individual) [1]: activity of promoting growth of aerial leaves at the late growth stage | growth of aerial leaves and stems of tomato [2]: activity of promoting the growth of aerial leaves and stems of tomato | growth of aerial leaves and stems of rice (plant length) [3]: activity of promoting the growth of aerial leaves and stems of rice | development/growth of lateral roots ([4]; Day 13 of sprouting, constant light irradiation, FIG. 2): activity of promoting development/growth of lateral roots in the early growth stage | growth of aerial leaves and petioles ([4]; Day 21 of sprouting, FIG. 3): activity of promoting growth of aerial leaves and petioles in the late growth stage | branching ([4]; Day 35 of sprouting, FIG. 4): activity of promoting branching | salt tolerance ([4]; sodium chloride 125 mM, Day 21 of sprouting, FIG. 5): action of enhancing salt tolerance

c1cc2c(cc1CN1CCN(Cc3ccc4c(c3)OCO4)CC1)OCO2 [Compound 2, 1,4-dipiperonylpiperazine]
plant growth promoting effects (state of sprouting) [5]: decreased plant growth promoting activity and/or growth inhibition

c1cc2c(cc1CN1CCOCC1)OCO2 [Compound 4]
growth of aerial leaves [1]: activity of promoting the growth of aerial leaves at the late growth stage

c1ncn(Cc2ccc3c(c2)OCO3)n1 [Compound 6]
plant growth promoting effects (state of sprouting) [5]: decreased plant growth promoting activity and/or growth inhibition

c1cn(Cc2ccc3c(c2)OCO3)nn1 [Compound 7]
plant growth promoting effects (state of sprouting) [5]: decreased plant growth promoting activity and/or growth inhibition

COc1ccc(CN2CCOCC2)cc1OC [Compound 10]
elongation of the main root ([5]; not shown in figures): excellent plant growth promoting effects for elongation of the main root

CN1CCN(Cc2ccc3c(c2)OCO3)CC1 [Compound 11]
elongation of stems and roots ([5]; not shown in figures): excellent plant growth promoting effects for elongation of stems and roots

c1cc2c(cc1CN1CCSCC1)OCO2 [Compound 12]
elongation of stems and roots ([5]; not shown in figures): excellent plant growth promoting effects for elongation of stems and roots

COc1cc(CN2CCOCC2)cc(OC)c1OC [Compound 13]
plant growth promoting effects (state of sprouting) [1]: weak plant growth promoting effects

COc1ccc(N2CCOCC2)cc1OC [Compound 15]
plant growth promoting effects (state of sprouting) [1]: weak plant growth promoting effects

c1cc2c(cc1CCN1CCOCC1)OCO2 [Compound 16]
growth of aerial leaves [1]: activity of promoting the growth of aerial leaves at the late growth stage | growth of aerial leaves (average leaf area per individual) [1]: activity of promoting growth of aerial leaves at the late growth stage

O=S1(=O)CCN(Cc2ccc3c(c2)OCO3)CC1 [Compound 21]
growth of aerial leaves [1]: activity of promoting the growth of aerial leaves at the late growth stage

COCCN(C)Cc1ccc2c(c1)OCO2 [Compound 22]
growth of aerial leaves [1]: activity of promoting the growth of aerial leaves at the late growth stage
